Source: patent US8324390B2, “Tetrazole-substituted anthranilamides as pesticides” (Bayer CropScience AG, priority 2008, dated 2012)
Like-named read-outs stand apart in the source and are kept apart here.

Tests used:
[1] = system: larvae of the mustard beetle (Phaedon cochleariae); assay: Phaedon test (PHAECO spray treatment); conditions: Phaedon cochleariae, in Brassica rapa, foliar, read-out: effect in % (beetle larvae killed)
[2] = system: caterpillars of the armyworm (Spodoptera frugiperda); assay: Spodoptera frugiperda test (SPODFR spray treatment); assay type: in vivo; conditions: Spodoptera frugiperda, foliar, read-out: effect in % (caterpillars killed)
Excerpt: (§1) Solvent: 78.0 parts by weight of acetone

[3] = system: green peach aphid (Myzus persicae); assay: Myzus test (MYZUPE spray treatment); assay type: in vivo; conditions: Myzus persicae, foliar, read-out: effect in % (aphids killed)
Excerpt: Solvent: 78 parts by weight of acetone
as §1

[4] = log P determination by HPLC (EEC Directive 79/831 Annex V.A8); assay type: physicochemical
Description: The measurements were carried out using an Agilent 1100 LC system with a 50*4.6 Zorbax Eclipse C18 1.8 μm column (oven temperature 55° C., flow rate 2.0 ml/min).
The following mobile phases were used:
Mobile phase A: acetonitrile+1000 μl of formic acid/l
Mobile phase B: Millipore water+900 μl of formic acid/l

[5] = application rate 100 g/ha, maize leaf discs
[6] = application rate 100 g/ha, Chinese cabbage leaf discs
[7] = reversed-phase HPLC, Zorbax Eclipse C18 column, determined by HPLC according to EEC Directive 79/831 Annex V.A8, read-out: log P
[8] = reversed-phase HPLC, Zorbax Eclipse C18 column, by HPLC according to EEC Directive 79/831 Annex V.A8, read-out: log P

SMILES	chromatographic logP [4, 7]	chromatographic logP [4, 8]	pest or weed control at 100 g/ha [1] [%]	pest or weed control at 100 g/ha [2, 5] [%]	pest or weed control at 100 g/ha [3, 6] [%]	pest or weed control at 100 g/ha ([2]; in Zea mays) [%]	pest or weed control at 100 g/ha ([3]; in Brassica rapa) [%]	chromatographic logP ([4]; log P)	pest or weed control at 20 g/ha ([3]; application rate 20 g/ha, Chinese cabbage leaf discs) [%]
Cc1cc(Cl)cc(C(N)=O)c1NC(=O)c1cc(Cn2nnc(C(F)(C(F)(F)F)C(F)(F)F)n2)nn1-c1ncccc1Cl [Example 360]	–	–	≥ 80	–	–	≥ 80	≥ 80	3.46	–
Cc1cc(C#N)cc(C(=O)NC(C)(C)C)c1NC(=O)c1cc(Cn2nnnc2C(F)(F)F)nn1-c1ncccc1Cl [Example 160]	–	–	≥ 80	–	–	≥ 80	≥ 80	3.05	–
Cc1cc(C#N)cc(C(N)=O)c1NC(=O)c1cc(C(C)n2nnc(C(F)(F)F)n2)nn1-c1ncccc1Cl (stereo not shown) [Example 437]	–	–	≥ 80	–	–	≥ 80	≥ 80	2.66	–
Cc1cc(Cl)cc(C(=O)NC(C)C)c1NC(=O)c1cc(Cn2nnnc2C(F)F)nn1-c1ncccc1Cl [Example 462]	–	–	≥ 80	–	–	≥ 80	≥ 80	2.75	–
CCNC(=O)c1cc(C#N)cc(C)c1NC(=O)c1cc(Cn2nnc(C(F)(F)C(F)(F)F)n2)nn1-c1ncccc1Br [Example 426]	3.23	–	≥ 80	≥ 80	≥ 80	–	–	–	–
Cc1cc(Cl)cc(C(=O)NC(C)(C)C)c1NC(=O)c1cc(Cn2nnc(C(F)(F)F)n2)nn1-c1ncccc1Cl [Example 544]	–	–	≥ 80	–	–	≥ 80	≥ 80	3.85	–
CSC[C@H](C)NC(=O)c1cc(F)cc(C)c1NC(=O)c1cc(Cn2nnc(C(F)(F)F)n2)nn1-c1ncccc1Cl [Example 43]	–	–	≥ 80	–	–	≥ 80	≥ 80	3.31	–
CC(NC(=O)c1cc(Cl)cc(Cl)c1NC(=O)c1cc(Cn2nnnc2C(F)(F)C(F)(F)F)nn1-c1ncccc1Cl)C1CC1 (stereo not shown) [Example 448]	–	–	≥ 80	–	–	≥ 80	≥ 80	3.81	–
Cc1cc(F)cc(C(=O)NC(C)C)c1NC(=O)c1cc(Cn2nnnc2C(F)(F)F)nn1-c1ncccc1Cl [Example 168]	–	–	≥ 80	–	–	≥ 80	≥ 80	2.76	–
Cc1cc(I)cc(C(=O)NCC#N)c1NC(=O)c1cc(Cn2nnc(C(F)(F)F)n2)nn1-c1ncccc1Cl [Example 70]	–	–	≥ 80	–	–	≥ 80	≥ 80	3.14	–
Cc1cc(C#N)cc(C(=O)NC(C)C2CC2)c1NC(=O)c1cc(Cn2nnc(C(F)(F)C(F)(F)F)n2)nn1-c1ncccc1Cl (stereo not shown) [Example 134]	–	–	≥ 80	–	–	≥ 80	≥ 80	3.84	–
Cc1cc(Cl)cc(C(=O)NC(C)CF)c1NC(=O)c1cc(Cn2nnc(C(F)(F)F)n2)nn1-c1ncccc1Cl (stereo not shown) [Example 328]	–	–	≥ 80	–	–	≥ 80	≥ 80	3.3	–
Cc1cc(F)cc(C(=O)NC2CC2)c1NC(=O)c1cc(Cn2nnc(C(F)(F)F)n2)nn1-c1ncccc1Cl [Example 27]	–	–	≥ 80	–	–	≥ 80	≥ 80	2.87	–
Cc1cc(C#N)cc(C(N)=O)c1NC(=O)c1cc(Cn2nnc(C(F)(C(F)(F)F)C(F)(F)F)n2)nn1-c1ncccc1Cl [Example 372]	–	–	≥ 80	–	–	≥ 80	≥ 80	3.13	–
CC(C)(C)NC(=O)c1cc(Cl)cc(Cl)c1NC(=O)c1cc(Cn2nnc(C(F)(F)F)n2)nn1-c1ncccc1Cl [Example 60]	–	–	≥ 80	–	–	≥ 80	≥ 80	3.78	–
CNC(=O)c1cc(C#N)cc(C)c1NC(=O)c1cc(Cn2nnnc2C(F)(F)C(F)(F)F)nn1-c1ncccc1Cl [Example 444]	–	–	≥ 80	–	–	≥ 80	≥ 80	2.73	–

Now from value to compound, other results behind:

chromatographic logP [4, 7]	chromatographic logP [4, 8]	SMILES	pest or weed control at 100 g/ha [1] [%]	pest or weed control at 100 g/ha [2, 5] [%]	pest or weed control at 100 g/ha [3, 6] [%]	pest or weed control at 100 g/ha ([2]; in Zea mays) [%]	pest or weed control at 100 g/ha ([3]; in Brassica rapa) [%]	chromatographic logP ([4]; log P)	pest or weed control at 20 g/ha ([3]; application rate 20 g/ha, Chinese cabbage leaf discs) [%]
3.54	–	Cc1cc(I)cc(C(=O)NC(C)C)c1NC(=O)c1cc(Cn2nnnc2C(F)(F)F)nn1-c1ncccc1C(F)(F)F [Example 450]	≥ 80	≥ 80	≥ 80	–	–	–	–
3.72	–	Cc1cc(C#N)cc(C(=O)NC(C)(C)C)c1NC(=O)c1cc(Cn2nnc(C(F)(F)F)n2)nn1-c1ccccc1 [Example 428]	≥ 80	≥ 80	≥ 80	–	–	–	–
2.9	–	Cc1cc(Cl)cc(C(=O)NC2CC2)c1NC(=O)c1cc(Cn2nnnc2C(F)(F)F)nn1-c1ncccc1Br [Example 487]	≥ 80	≥ 80	≥ 80	–	–	–	–
3.41	–	Cc1cc(I)cc(C(=O)NC(C)C)c1NC(=O)c1cc(Cn2nnnc2C(F)(F)F)nn1-c1ncccc1Br [Example 504]	≥ 80	≥ 80	≥ 80	–	–	–	–
3.78	–	Cc1cc(C#N)cc(C(=O)NC(C)(C)C)c1NC(=O)c1cc(Cn2nnc(C(F)(F)C(F)(F)F)n2)nn1-c1ncccc1Br [Example 425]	≥ 80	≥ 80	≥ 80	–	–	–	–
–	2.92	CNC(=O)c1cc(C#N)cc(C)c1NC(=O)c1cc(Cn2nnc(C(F)(F)F)n2)nn1-c1ccccc1F [Example 318]	≥ 80	≥ 80	≥ 80	–	–	–	–
2.51	–	Cc1cc(Br)cc(C(N)=O)c1NC(=O)c1cc(Cn2nnnc2C(F)(F)F)nn1-c1ncccc1Br [Example 498]	≥ 80	≥ 80	≥ 80	–	–	–	–
3.58	–	Cc1cc(C#N)cc(C(=O)NC(C)(C)C)c1NC(=O)c1cc(Cn2nnnc2C(F)(F)F)nn1-c1ccccc1C(F)(F)F [Example 488]	≥ 80	≥ 80	≥ 80	–	–	–	–
3.87	–	CCNC(=O)c1cc(C#N)cc(C)c1NC(=O)c1cc(Cn2nnc(C(F)(F)C(F)(F)F)n2)nn1-c1ccccc1Cl [Example 532]	≥ 80	≥ 80	≥ 80	–	–	–	–
–	3.49	Cc1cc(Cl)cc(C(=O)NC(C)C)c1NC(=O)c1cc(Cn2nnc(C(F)(F)F)n2)nn1-c1ncccc1Br [Example 334]	≥ 80	≥ 80	≥ 80	–	–	–	–
3.13	–	CNC(=O)c1cc(C#N)cc(C)c1NC(=O)c1cc(Cn2nnc(C(F)(F)F)n2)nn1-c1c(F)cccc1Cl [Example 529]	≥ 80	≥ 80	≥ 80	–	–	–	–
–	3.88	Cc1cc(Cl)cc(C(=O)NC(C)(C)C)c1NC(=O)c1cc(Cn2nnc(C(F)(F)F)n2)nn1-c1ncccc1Br [Example 329]	≥ 80	≥ 80	–	–	–	–	≥ 80
–	2.85	Cc1cc(C#N)cc(C(=O)NC2CC2)c1NC(=O)c1cc(Cn2nnc(C(F)(F)F)n2)nn1-c1ncccc1Br [Example 333]	≥ 80	≥ 80	≥ 80	–	–	–	–
3.11	–	Cc1cc(I)cc(C(=O)NC2CC2)c1NC(=O)c1cc(Cn2nnnc2C(F)(F)F)nn1-c1ncccc1Br [Example 495]	≥ 80	≥ 80	≥ 80	–	–	–	–
3.36	–	CCNC(=O)c1cc(Br)cc(C)c1NC(=O)c1cc(Cn2nnc(C(F)(F)F)n2)nn1-c1ncccc1Br [Example 411]	≥ 80	≥ 80	≥ 80	–	–	–	–
2.95	–	Cc1cc(C#N)cc(C(=O)NC2CC2)c1NC(=O)c1cc(Cn2nnnc2C(F)(F)F)nn1-c1ccccc1Cl [Example 525]	≥ 80	≥ 80	≥ 80	–	–	–	–
3.43	–	CNC(=O)c1cc(C#N)cc(C)c1NC(=O)c1cc(Cn2nnc(C(F)(F)C(F)(F)F)n2)nn1-c1ccccc1Cl [Example 430]	≥ 80	≥ 80	≥ 80	–	–	–	–
2.88	–	Cc1cc(C#N)cc(C(=O)NC(C)C)c1NC(=O)c1cc(Cn2nnc(C(F)(F)F)n2)nn1-c1ncccc1F [Example 406]	≥ 80	≥ 80	≥ 80	–	–	–	–
